Experimental findings from patent US12441726B2, “Compounds and uses thereof” (Foghorn Therapeutics Inc., priority 2020, dated 2025) are described below.

One assay has as its target BRM (Homo sapiens, UniProt P51531). Put plainly: ATPase catalytic activity assay (ADP-Glo), BRM. Particulars: 30 nM BRM, 400 μM ATP; for IC50: BRM ATPase: IC50 (uM). A general note: ADP-Glo turns the ADP formed in a reaction into a luminescent signal.
The target of the next assay is BRG-1 (Homo sapiens, UniProt P51532). Put plainly: ATPase catalytic activity assay (ADP-Glo), BRG-1. Particulars: for Emax: 1 h, read-out: BRG1 Max % Inhibition, ADP-Glo, 30 nM BRG-1, 400 μM ATP.
Chain of BRG-1 (P51532 whole entry): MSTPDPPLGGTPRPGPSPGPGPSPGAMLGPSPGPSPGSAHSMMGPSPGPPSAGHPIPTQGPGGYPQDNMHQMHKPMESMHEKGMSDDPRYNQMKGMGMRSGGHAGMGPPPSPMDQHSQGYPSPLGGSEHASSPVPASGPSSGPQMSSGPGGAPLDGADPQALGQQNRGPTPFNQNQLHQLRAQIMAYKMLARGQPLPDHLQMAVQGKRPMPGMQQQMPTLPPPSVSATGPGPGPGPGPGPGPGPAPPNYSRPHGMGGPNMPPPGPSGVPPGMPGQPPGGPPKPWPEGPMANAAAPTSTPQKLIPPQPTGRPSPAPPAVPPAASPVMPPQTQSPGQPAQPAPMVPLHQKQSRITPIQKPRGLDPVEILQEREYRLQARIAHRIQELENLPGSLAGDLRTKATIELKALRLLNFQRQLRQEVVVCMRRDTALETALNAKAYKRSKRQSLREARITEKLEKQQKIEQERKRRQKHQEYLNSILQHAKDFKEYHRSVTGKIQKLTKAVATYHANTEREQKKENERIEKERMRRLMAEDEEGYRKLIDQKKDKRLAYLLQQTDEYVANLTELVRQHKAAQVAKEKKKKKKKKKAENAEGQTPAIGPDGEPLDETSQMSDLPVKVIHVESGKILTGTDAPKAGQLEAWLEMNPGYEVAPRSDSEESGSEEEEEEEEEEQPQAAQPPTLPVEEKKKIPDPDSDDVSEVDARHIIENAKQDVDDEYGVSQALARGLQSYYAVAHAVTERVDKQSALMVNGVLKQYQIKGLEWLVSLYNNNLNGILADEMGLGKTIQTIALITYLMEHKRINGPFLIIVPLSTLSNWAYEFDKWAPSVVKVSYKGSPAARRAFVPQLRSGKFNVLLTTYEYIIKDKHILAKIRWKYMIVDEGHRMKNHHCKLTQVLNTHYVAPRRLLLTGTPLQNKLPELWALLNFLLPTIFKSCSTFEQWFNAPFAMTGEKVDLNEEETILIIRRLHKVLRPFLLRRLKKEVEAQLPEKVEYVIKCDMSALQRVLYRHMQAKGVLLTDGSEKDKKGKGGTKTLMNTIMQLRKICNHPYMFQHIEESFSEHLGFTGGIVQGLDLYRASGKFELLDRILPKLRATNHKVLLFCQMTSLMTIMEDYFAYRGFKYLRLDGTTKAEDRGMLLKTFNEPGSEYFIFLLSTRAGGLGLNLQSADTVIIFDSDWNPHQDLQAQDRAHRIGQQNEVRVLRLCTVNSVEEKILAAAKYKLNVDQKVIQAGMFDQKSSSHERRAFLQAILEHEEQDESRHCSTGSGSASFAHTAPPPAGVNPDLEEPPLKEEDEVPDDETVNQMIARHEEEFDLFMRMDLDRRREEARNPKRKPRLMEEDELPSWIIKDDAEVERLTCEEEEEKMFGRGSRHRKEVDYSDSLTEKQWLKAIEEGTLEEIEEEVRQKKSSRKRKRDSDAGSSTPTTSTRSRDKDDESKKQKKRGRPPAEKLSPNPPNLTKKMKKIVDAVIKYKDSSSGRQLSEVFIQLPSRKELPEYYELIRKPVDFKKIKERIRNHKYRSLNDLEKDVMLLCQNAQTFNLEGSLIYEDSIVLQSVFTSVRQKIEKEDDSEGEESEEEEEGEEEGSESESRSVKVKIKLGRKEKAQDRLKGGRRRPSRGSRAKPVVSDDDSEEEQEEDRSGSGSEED

Chain of BRM (P51531 whole entry): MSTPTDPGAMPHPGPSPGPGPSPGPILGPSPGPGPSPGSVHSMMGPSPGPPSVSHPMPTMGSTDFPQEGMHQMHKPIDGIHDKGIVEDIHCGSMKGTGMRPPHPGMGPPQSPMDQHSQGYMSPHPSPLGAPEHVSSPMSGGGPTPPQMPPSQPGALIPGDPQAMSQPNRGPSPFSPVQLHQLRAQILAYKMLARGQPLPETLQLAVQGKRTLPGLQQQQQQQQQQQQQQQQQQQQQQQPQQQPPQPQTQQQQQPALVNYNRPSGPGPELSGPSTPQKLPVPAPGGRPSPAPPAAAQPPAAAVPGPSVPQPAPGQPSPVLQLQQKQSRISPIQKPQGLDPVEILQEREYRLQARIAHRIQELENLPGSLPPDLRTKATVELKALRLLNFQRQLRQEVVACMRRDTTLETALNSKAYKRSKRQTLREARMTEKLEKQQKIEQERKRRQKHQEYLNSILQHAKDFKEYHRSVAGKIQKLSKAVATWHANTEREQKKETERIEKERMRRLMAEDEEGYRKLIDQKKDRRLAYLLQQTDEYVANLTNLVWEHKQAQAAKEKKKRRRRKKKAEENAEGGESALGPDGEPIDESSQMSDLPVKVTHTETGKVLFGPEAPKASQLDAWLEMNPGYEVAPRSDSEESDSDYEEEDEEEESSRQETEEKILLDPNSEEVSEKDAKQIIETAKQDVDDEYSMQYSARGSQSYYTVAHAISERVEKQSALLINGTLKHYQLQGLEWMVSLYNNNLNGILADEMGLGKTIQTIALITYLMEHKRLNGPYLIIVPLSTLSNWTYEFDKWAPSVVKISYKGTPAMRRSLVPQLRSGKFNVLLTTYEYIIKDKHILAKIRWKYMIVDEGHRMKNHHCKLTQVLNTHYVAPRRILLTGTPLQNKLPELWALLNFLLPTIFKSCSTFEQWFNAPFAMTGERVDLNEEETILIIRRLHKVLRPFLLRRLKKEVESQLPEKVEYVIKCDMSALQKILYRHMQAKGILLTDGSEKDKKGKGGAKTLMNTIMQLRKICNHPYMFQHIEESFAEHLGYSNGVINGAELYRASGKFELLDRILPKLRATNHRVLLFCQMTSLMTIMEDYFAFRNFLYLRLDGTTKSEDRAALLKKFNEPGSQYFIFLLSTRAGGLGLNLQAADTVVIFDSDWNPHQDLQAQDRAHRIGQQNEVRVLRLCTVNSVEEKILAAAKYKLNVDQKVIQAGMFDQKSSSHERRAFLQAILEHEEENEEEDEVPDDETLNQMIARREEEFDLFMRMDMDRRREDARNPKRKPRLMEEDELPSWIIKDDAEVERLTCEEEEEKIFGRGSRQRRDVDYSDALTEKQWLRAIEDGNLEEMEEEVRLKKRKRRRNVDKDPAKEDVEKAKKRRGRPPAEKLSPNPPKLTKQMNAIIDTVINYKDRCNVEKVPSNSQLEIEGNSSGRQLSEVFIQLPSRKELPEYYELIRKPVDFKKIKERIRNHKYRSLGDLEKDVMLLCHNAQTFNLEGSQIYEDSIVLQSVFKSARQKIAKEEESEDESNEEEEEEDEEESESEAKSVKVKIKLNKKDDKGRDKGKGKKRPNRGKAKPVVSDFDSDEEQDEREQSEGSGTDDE

A word on the IC50: it is the concentration needed to halve the response being measured. With `O=C(NCc1cc2nc(-c3cncc(N4CCC4)n3)ccc2cn1)c1cc(F)c2c(c1)[C@](F)(C(F)F)COC2` [Compound 375], at BRM, the “BRM Max % Inhibition” value amounted to 100% and the IC50 was less than 0.1 µM. Further, at BRG-1, the half-maximal inhibitory concentration (IC50) was less than 100 nM and the Emax worked out at 101%.
Take `C[C@H]1COCCN1c1nccc(-c2ccc3cnc(CNC(=O)c4ccc5c(c4)[C@](C)(C#N)COC5)cc3n2)n1` [Compound 376]: at BRM, the “BRM Max % Inhibition” value is 98% and the 50% inhibitory concentration (IC50) was 0.1 to 0.5 µM. Besides, at BRG-1, the IC50 lay in the range of 500 to 1000 nM and the Emax came out at 79%.
Turning to `C[C@@]1(C#N)COCc2ccc(C(=O)NCc3cc4cc(-c5ccnc(N6CCC6)n5)cnc4cn3)cc21` [Compound 377], on BRM, the “BRM Max % Inhibition” value was determined as 98% and the IC50 was less than 0.1 µM. In addition, at BRG-1, the 50% inhibitory concentration (IC50) fell in the range of 500 to 1000 nM and the Emax came out at 89%.
For `C[C@@]1(C#N)COCc2ccc(C(=O)NCc3cc4nc(-c5cccc(N6CCCC6=O)n5)ccc4cn3)cc21` [Compound 378], in that order: 100%, less than 0.1 µM, 100 to 500 nM and 99%.
Regarding `C[C@@]1(C#N)COCc2ccc(C(=O)NCc3cc4nc(-c5cccc(C6(O)CC6)n5)ccc4cn3)cc21` [Compound 384], on BRM, the “BRM Max % Inhibition” value worked out at 101% and the IC50 is less than 0.1 µM. At BRG-1, the IC50 was less than 100 nM and the Emax worked out at 100%.
With `C[C@@]1(C#N)COCc2ccc(C(=O)NCc3cc4nc(-c5cccc(N6CCC6=O)n5)ccc4cn3)cc21` [Compound 392], at BRM, the “BRM Max % Inhibition” value is given as 100% and the 50% inhibitory concentration (IC50) is less than 0.1 µM. At BRG-1, the concentration for half-maximal inhibition (IC50) was 100 to 500 nM and the Emax amounted to 95%.
For `C[C@@]1(C#N)COCc2ccc(C(=O)NCc3cc4nc(-c5cccc(N6CCC6=O)c5)ccc4cn3)cc21` [Compound 393], at BRM, the “BRM Max % Inhibition” value was 99% and the 50% inhibitory concentration (IC50) is less than 0.1 µM. Moreover, on BRG-1, the half-maximal inhibitory concentration (IC50) was less than 100 nM and the Emax worked out at 96%.
The like results for `COCC1CN(c2cncc(-c3ccc4cnc(CNC(=O)c5ccc6c(c5)[C@](C)(C#N)COC6)cc4n3)n2)C1` [Compound 394] were, in that order, 101%, less than 0.1 µM, 100 to 500 nM and 93%.
`C[C@@]1(F)COCc2ncc(C(=O)NCc3cc4nc(-c5cncc(N6CCC6)n5)ccc4cn3)cc21` [Compound 395]: on BRM, the “BRM Max % Inhibition” value is recorded as 92% and the 50% inhibitory concentration (IC50) was 0.1 to 0.5 µM. Besides, on BRG-1, the half-maximal inhibitory concentration (IC50) lay in the range of 500 to 1000 nM and the Emax is 62%.
With `CC(=O)N(C)c1cccc(-c2ccc3cnc(CNC(=O)c4ccc5c(c4)[C@](C)(C#N)COC5)cc3n2)n1` [Compound 396], on BRM, the “BRM Max % Inhibition” value is 74% and the 50% inhibitory concentration (IC50) lay within 0.1 to 0.5 µM. Also, at BRG-1, the IC50 was greater than 1000 nM and the Emax came to 32%.
Turning to `C[C@@]1(C#N)COCc2ccc(C(=O)NCc3cc4nc(-c5ccnc(C6CCOCC6)n5)ccc4cn3)cc21` [Compound 397], at BRM, the “BRM Max % Inhibition” value was 93% and the concentration for half-maximal inhibition (IC50) was in the range of 0.1 to 0.5 µM. For the same compound, on BRG-1, the half-maximal inhibitory concentration (IC50) was in the range of 500 to 1000 nM and the Emax amounted to 66%.
Regarding `C[C@@]1(F)COCc2c(F)cc(C(=O)NCc3cc4nc(-c5cncc(N6CCC6)n5)ccc4cn3)cc21` [Compound 398], at BRM, the “BRM Max % Inhibition” value came out at 98% and the IC50 was less than 0.1 µM. Further, on BRG-1, the IC50 was in the range of 100 to 500 nM and the Emax is 91%.
On to `C[C@@]1(C#N)COCc2c(F)cc(C(=O)NCc3cc4nc(-c5cncc(N6CCC6)n5)ccc4cn3)cc21` [Compound 399], for which, at BRM, the “BRM Max % Inhibition” value is recorded as 100% and the half-maximal inhibitory concentration (IC50) was less than 0.1 µM. Further, on BRG-1, the concentration for half-maximal inhibition (IC50) is 100 to 500 nM and the Emax turned out to be 98%.
For `C[C@@]1(C#N)COCc2c(F)cc(C(=O)NCc3cc4nc(-c5ccccc5)ccc4cn3)cc21` [Compound 400], in that order: 96%, 0.1 to 0.5 µM, 500 to 1000 nM and 68%.
On to `C[C@@]1(F)COCc2ccc(C(=O)NCc3cc4nc(-c5cncc(N6CCC6)n5)ccc4cn3)cc21` [Compound 401], for which, on BRM, the “BRM Max % Inhibition” value turned out to be 97% and the IC50 is less than 0.1 µM. On BRG-1, the half-inhibitory concentration (IC50) lay in the range of 100 to 500 nM and the Emax was 91%.
For `C[C@@]1(C#N)COCc2ccc(C(=O)NCc3cc4c(cn3)CCN(c3cccc(N5CCC5)n3)C4)cc21` [Compound 402], in that order: 96%, less than 0.1 µM, 500 to 1000 nM and 74%.
Turning to `C[C@@]1(C#N)COCc2ccc(C(=O)NCc3cc4nc(-c5ccnc(N6CC7(COC7)C6)n5)ccc4cn3)cc21` [Compound 403], on BRM, the “BRM Max % Inhibition” value turned out to be 99% and the half-maximal inhibitory concentration (IC50) is less than 0.1 µM. Further, at BRG-1, the concentration for half-maximal inhibition (IC50) lay in the range of 100 to 500 nM and the Emax is 91%.
On to `C[C@@]1(C#N)COCc2ccc(C(=O)NCc3cc4nc(-c5cncc(N6CC(F)(F)C6)n5)ccc4cn3)cc21` [Compound 404], for which, on BRM, the “BRM Max % Inhibition” value turned out to be 93% and the half-inhibitory concentration (IC50) is 0.1 to 0.5 µM. Moreover, on BRG-1, the half-inhibitory concentration (IC50) lay in the range of 100 to 500 nM and the Emax was 78%.
For `C[C@@]1(C#N)COCc2ccc(C(=O)NCc3cc4nc(-c5cnn6c5OCCC6)ccc4cn3)cc21` [Compound 405], in that order: 85%, 0.1 to 0.5 µM, 500 to 1000 nM and 55%.
In the case of `C[C@@]1(C#N)COCc2ccc(C(=O)NCc3cc4nc(-c5cncc(C6CC6)n5)ccc4cn3)cc21` [Compound 406], at BRM, the “BRM Max % Inhibition” value came out at 100% and the IC50 is less than 0.1 µM. Besides, at BRG-1, the IC50 was 100 to 500 nM and the Emax turned out to be 93%.
For `CN(C)c1cncc(-c2ccc3cnc(CNC(=O)c4ccc5c(c4)[C@](C)(C#N)COC5)cc3n2)n1` [Compound 407], in that order: 99%, less than 0.1 µM, 100 to 500 nM and 97%.
Consider `Cc1cncc(-c2ccc3cnc(CNC(=O)c4ccc5c(c4)[C@](C)(C#N)COC5)cc3n2)n1` [Compound 408], for which, at BRM, the “BRM Max % Inhibition” value is on record as 91% and the half-maximal inhibitory concentration (IC50) fell in the range of 0.1 to 0.5 µM. On BRG-1, the IC50 lay in the range of 500 to 1000 nM and the Emax was determined as 65%.
With `COC1CN(c2cncc(-c3ccc4cnc(CNC(=O)c5ccc6c(c5)[C@](C)(C#N)COC6)cc4n3)n2)C1` [Compound 409], on BRM, the “BRM Max % Inhibition” value is recorded as 96% and the IC50 was less than 0.1 µM. In addition, at BRG-1, the half-inhibitory concentration (IC50) fell in the range of 100 to 500 nM and the Emax turned out to be 95%.
For the compound `CC(C)(O)c1cccc(-c2ccc3cnc(CNC(=O)c4ccc5c(c4)[C@](C)(C#N)COC5)cc3n2)n1` [Compound 410], on BRM, the “BRM Max % Inhibition” value turned out to be 93% and the concentration for half-maximal inhibition (IC50) lay in the range of 0.1 to 0.5 µM. For the same compound, on BRG-1, the half-maximal inhibitory concentration (IC50) lay within 500 to 1000 nM and the Emax was 75%.
As for `C[C@@]1(C#N)COCc2ccc(C(=O)NCc3cc4nc(-n5cc(F)cn5)ccc4cn3)cc21` [Compound 411], on BRM, the “BRM Max % Inhibition” value is reported as 91% and the IC50 was 0.1 to 0.5 µM. For the same compound, at BRG-1, the IC50 was in the range of 500 to 1000 nM and the Emax is 50%.
The like results for `C[C@@]1(C#N)COCc2ccc(C(=O)NCc3cc4nc(-c5ccnc(N6CCC6)c5F)ccc4cn3)cc21` [Compound 412] were, in that order, 99%, less than 0.1 µM, 100 to 500 nM and 98%.
In the case of `C[C@@]1(F)COCc2ncc(C(=O)NCc3cc4nc(-c5ccccc5)ccc4cn3)cc21` [Compound 413], at BRM, the “BRM Max % Inhibition” value was found to be 92% and the concentration for half-maximal inhibition (IC50) was in the range of 0.1 to 0.5 µM. Moreover, at BRG-1, the concentration for half-maximal inhibition (IC50) was in the range of 500 to 1000 nM and the Emax stood at 51%.
For the compound `C[C@@]1(C#N)COCc2ccc(C(=O)NCc3cc4nc(-c5cnc(N6CCC6)cn5)ccc4cn3)cc21` [Compound 414], at BRM, the “BRM Max % Inhibition” value was determined as 91% and the half-maximal inhibitory concentration (IC50) was 0.1 to 0.5 µM. Besides, on BRG-1, the 50% inhibitory concentration (IC50) was in the range of 500 to 1000 nM and the Emax was determined as 67%.
Turning to `C[C@@]1(C#N)COCc2ccc(C(=O)NCc3cc4nc(-c5cncc(N6CCCC6)n5)ccc4cn3)cc21` [Compound 415], at BRM, the “BRM Max % Inhibition” value amounted to 99% and the IC50 is less than 0.1 µM. In addition, on BRG-1, the IC50 was less than 100 nM and the Emax is 95%.
On to `C[C@@]1(C#N)COCc2ccc(C(=O)NCc3cc4nc(-c5ccnc(N6CCOCC6)n5)ccc4cn3)cc21` [Compound 416], for which, at BRM, the “BRM Max % Inhibition” value was determined as 99% and the concentration for half-maximal inhibition (IC50) was less than 0.1 µM. Further, at BRG-1, the half-inhibitory concentration (IC50) lay within 100 to 500 nM and the Emax was determined as 95%.
As for `C[C@@]1(C#N)COCc2ccc(C(=O)NCc3cc4nc(-c5ccnc(C6CC6)n5)ccc4cn3)cc21` [Compound 417], at BRM, the “BRM Max % Inhibition” value is given as 97% and the IC50 was less than 0.1 µM. Further, at BRG-1, the 50% inhibitory concentration (IC50) was 100 to 500 nM and the Emax is 91%.
The like results for `COC1(c2cccc(-c3ccc4cnc(CNC(=O)c5ccc6c(c5)[C@](C)(C#N)COC6)cc4n3)c2)COC1` [Compound 418] were, in that order, 90%, 0.1 to 0.5 µM, greater than 1000 nM and 51%.
Turning to `COC1(c2cccc(-c3ccc4cnc(CNC(=O)c5ccc6c(c5)[C@](C)(C#N)COC6)cc4n3)n2)COC1` [Compound 419], on BRM, the “BRM Max % Inhibition” value turned out to be 93% and the concentration for half-maximal inhibition (IC50) was 0.1 to 0.5 µM. Besides, on BRG-1, the IC50 is 500 to 1000 nM and the Emax came to 64%.
As to `C[C@@]1(C#N)COCc2ccc(C(=O)NCc3cc4nc(-c5ccnc(C6CCC6)n5)ccc4cn3)cc21` [Compound 420], at BRM, the “BRM Max % Inhibition” value is 98% and the IC50 was less than 0.1 µM. At BRG-1, the half-inhibitory concentration (IC50) fell in the range of 100 to 500 nM and the Emax amounted to 89%.
For `CN1CC(c2cccc(-c3ccc4cnc(CNC(=O)c5ccc6c(c5)[C@](C)(C#N)COC6)cc4n3)c2)C1` [Compound 421], in that order: 84%, 0.1 to 0.5 µM, greater than 1000 nM and 37%.
